Results: PubChem BioAssay (NCI)
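GI50 marks 50% less growth. TGI is the concentration that stops growth completely.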

How the values were obtained:
Assay in all cases: NCI-60 cell line screen, 384-well format
T-47D breast = system: T-47D breast
MALME-3M melanoma = system: MALME-3M melanoma
RPMI-8226 leukemia = system: RPMI-8226 leukemia
UACC-257 melanoma = system: UACC-257 melanoma
LOX IMVI melanoma = system: LOX IMVI melanoma
SNB-19 CNS = system: SNB-19 CNS
HCC-2998 colon = system: HCC-2998 colon
RXF 393 renal = system: RXF 393 renal
CCRF-CEM leukemia = system: CCRF-CEM leukemia
A549 NSCLC = system: A549 NSCLC
SF-268 CNS = system: SF-268 CNS
MOLT-4 leukemia = system: MOLT-4 leukemia
M14 melanoma = system: M14 melanoma
BT-549 breast = system: BT-549 breast
TK-10 renal = system: TK-10 renal
NCI-H322M lung = system: NCI-H322M lung
HOP-92 NSCLC = system: HOP-92 NSCLC
SF-295 CNS = system: SF-295 CNS
A498 renal = system: A498 renal
UO-31 renal = system: UO-31 renal
SK-MEL-5 melanoma = system: SK-MEL-5 melanoma
OVCAR-8 ovarian = system: OVCAR-8 ovarian
HS 578T breast = system: HS 578T breast
SNB-75 CNS = system: SNB-75 CNS
PC-3 prostate = system: PC-3 prostate
KM12 colon = system: KM12 colon
SF-539 CNS = system: SF-539 CNS
SN12C renal = system: SN12C renal
EKVX NSCLC = system: EKVX NSCLC
COLO 205 colon = system: COLO 205 colon
OVCAR-3 ovarian = system: OVCAR-3 ovarian
HCT-116 colon = system: HCT-116 colon
NCI-H460 NSCLC = system: NCI-H460 NSCLC
OVCAR-4 ovarian = system: OVCAR-4 ovarian
NCI-H226 lung = system: NCI-H226 lung
MCF7 breast = system: MCF7 breast
SW-620 colon = system: SW-620 colon
SR leukemia = system: SR leukemia
MDA-MB-468 breast = system: MDA-MB-468 breast
HT29 colon = system: HT29 colon
CAKI-1 renal = system: CAKI-1 renal
OVCAR-5 ovarian = system: OVCAR-5 ovarian
ACHN renal = system: ACHN renal
NCI/ADR-RES ovarian = system: NCI/ADR-RES ovarian
DU-145 prostate = system: DU-145 prostate
HCT-15 colon = system: HCT-15 colon
MDA-MB-231 breast = system: MDA-MB-231 breast
UACC-62 melanoma = system: UACC-62 melanoma
NCI-H23 lung = system: NCI-H23 lung
NCI-H522 lung = system: NCI-H522 lung
HL-60(TB) leukemia = system: HL-60(TB) leukemia
SK-MEL-28 melanoma = system: SK-MEL-28 melanoma
SK-OV-3 ovarian = system: SK-OV-3 ovarian
U251 glioblastoma = system: U251 glioblastoma
MDA-MB-435 melanoma = system: MDA-MB-435 melanoma
IGROV1 ovarian = system: IGROV1 ovarian
786-0 renal = system: 786-0 renal
HOP-62 NSCLC = system: HOP-62 NSCLC

## C[C@H](Nc1ncnc2nc[nH]c12)c1cc2cccc(Cl)c2c(=O)n1-c1ccccc1
T-47D breast
  GI50: 1.6 µM
  TGI: 17.6 µM
MALME-3M melanoma
  GI50: 6.18 µM
  TGI: 49.8 µM
RPMI-8226 leukemia
  GI50: 25.2 µM
  TGI: > 78.7 µM
UACC-257 melanoma
  GI50: 27 µM
  TGI: > 100 µM
LOX IMVI melanoma
  GI50: 32.5 µM
  TGI: > 100 µM
SNB-19 CNS
  GI50: 44.5 µM
  TGI: > 100 µM
HCC-2998 colon
  GI50: 29.7 µM
  TGI: 92.1 µM
RXF 393 renal
  GI50: 0.104 µM
  TGI: 1.3 µM
CCRF-CEM leukemia
  GI50: 4.6 µM
  TGI: 90.7 µM
A549 NSCLC
  GI50: 14.5 µM
  TGI: > 90.4 µM
SF-268 CNS
  GI50: 24.7 µM
  TGI: > 84.7 µM
MOLT-4 leukemia
  GI50: 2.37 µM
  TGI: 12.5 µM
M14 melanoma
  GI50: 23.9 µM
  TGI: > 100 µM
BT-549 breast
  GI50: 1.29 µM
  TGI: 36.6 µM
TK-10 renal
  GI50: 15 µM
  TGI: > 100 µM
NCI-H322M lung
  GI50: 15.5 µM
  TGI: > 72 µM
HOP-92 NSCLC
  GI50: 2.31 µM
  TGI: 77.7 µM
SF-295 CNS
  GI50: 4.95 µM
  TGI: > 40.2 µM
A498 renal
  GI50: 1.09 µM
  TGI: 12.8 µM
UO-31 renal
  GI50: 3.89 µM
  TGI: > 93.1 µM
SK-MEL-5 melanoma
  GI50: 18.2 µM
  TGI: > 85.1 µM
OVCAR-8 ovarian
  GI50: 25.8 µM
  TGI: > 100 µM
HS 578T breast
  GI50: 3.41 µM
  TGI: 27.7 µM
SNB-75 CNS
  GI50: 0.103 µM
  TGI: 2.41 µM
PC-3 prostate
  GI50: 1.46 µM
  TGI: > 79.5 µM
KM12 colon
  GI50: 43.2 µM
  TGI: > 100 µM
SF-539 CNS
  GI50: 19.7 µM
  TGI: > 100 µM
SN12C renal
  GI50: 3.25 µM
  TGI: > 100 µM
EKVX NSCLC
  GI50: 15.2 µM
  TGI: > 100 µM
COLO 205 colon
  GI50: 42.8 µM
  TGI: > 100 µM
OVCAR-3 ovarian
  GI50: 3.65 µM
  TGI: > 48.4 µM
HCT-116 colon
  GI50: 28.7 µM
  TGI: > 100 µM
NCI-H460 NSCLC
  GI50: 15.9 µM
  TGI: > 100 µM
OVCAR-4 ovarian
  GI50: 11.4 µM
  TGI: 90.6 µM
NCI-H226 lung
  GI50: 33.4 µM
  TGI: > 100 µM
MCF7 breast
  GI50: 4.31 µM
  TGI: > 100 µM
SW-620 colon
  GI50: > 100 µM
  TGI: > 100 µM
SR leukemia
  GI50: 14 µM
  TGI: 40.1 µM
MDA-MB-468 breast
  GI50: 1.23 µM
  TGI: 14.9 µM
HT29 colon
  GI50: 18.8 µM
  TGI: > 100 µM
CAKI-1 renal
  GI50: 4.09 µM
  TGI: > 80 µM
OVCAR-5 ovarian
  GI50: 32.9 µM
  TGI: > 100 µM
ACHN renal
  GI50: 16.8 µM
  TGI: > 100 µM
NCI/ADR-RES ovarian
  GI50: > 100 µM
  TGI: > 100 µM
DU-145 prostate
  GI50: 24.6 µM
  TGI: > 100 µM
HCT-15 colon
  GI50: 35.2 µM
  TGI: > 100 µM
MDA-MB-231 breast
  GI50: 25.5 µM
  TGI: > 100 µM
UACC-62 melanoma
  GI50: 5.86 µM
  TGI: > 64.2 µM
NCI-H23 lung
  GI50: 25.9 µM
  TGI: > 100 µM
NCI-H522 lung
  GI50: 16.8 µM
  TGI: > 83.3 µM
HL-60(TB) leukemia
  GI50: 3.53 µM
  TGI: > 36.4 µM
SK-MEL-28 melanoma
  GI50: 8.44 µM
  TGI: 98.8 µM
SK-OV-3 ovarian
  GI50: 14.3 µM
  TGI: > 79.2 µM
U251 glioblastoma
  GI50: 47.3 µM
  TGI: > 100 µM
MDA-MB-435 melanoma
  GI50: > 100 µM
  TGI: > 100 µM
IGROV1 ovarian
  GI50: 2.43 µM
  TGI: 10.2 µM
786-0 renal
  GI50: 2.8 µM
  TGI: > 64.9 µM
HOP-62 NSCLC
  GI50: 30.7 µM
  TGI: > 100 µM
